These results are taken from patent US4670418A, “Method of using somatostatin as an analgesic or an anesthetic” (CuraMED Pharma GmbH, priority 1984, dated 1987).

A short description of data set [1]: penetration of the dura into the liquor upon peridural application. The data set is classed as in vivo.
Data set [2] relates to Cancer patients suffering from intolerable pain. As to the kind of experiment: intraspinal and intraventricular injection and infusion in cancer patients with intolerable pain. The data set is classed as in vivo. To be noted: humans, intraspinal or intraventricular route. As for the experimental part:
Cancer patients suffering from intolerable pain in the final stage of post-operative pain were given 250 μg of somatostatin as an injection and thereafter 10 to 50 μg/hour of somatostatin as an infusion, in part via the intraspinal route and in part via the intraventricular route.

Data set [3] can be described thus: intradural or intraspinal injections or infusions, anesthetic effect. Type of data set: in vivo.
The test system of data set [4] is dogs. The data set can be described thus: investigation with dogs, analgesia test according to Cohen (heated plate). The data set is classed as in vivo.
Data set [5] deals with humans. As to the kind of experiment: preliminary experiments with humans, peridural application. The data set is classed as in vivo.
In data set [6] the test system is rats. To be noted: intracerebroventricular infusion; cited from earlier work.
The conditions of data set [7]: in vivo; cited from earlier work.

Molecules are shown by their SMILES.

For orientation: half-life means the time needed for the level to fall by half in the phase considered. Take `C[C@H](N)C(=O)NCC(=O)N[C@H]1CSSC[C@@H](C(=O)O)NC(=O)[C@H](CO)NC(=O)[C@H]([C@@H](C)O)NC(=O)[C@H](Cc2ccccc2)NC(=O)[C@H]([C@@H](C)O)NC(=O)[C@H](CCCCN)NC(=O)[C@H](Cc2c[nH]c3ccccc23)NC(=O)[C@H](Cc2ccccc2)NC(=O)[C@H](Cc2ccccc2)NC(=O)[C@H](CC(N)=O)NC(=O)[C@H](CCCCN)NC1=O` [somatostatin]: the “penetration of the dura” value in data set [1] is “capable of rapidly (and to a high degree) penetrating the dura”. In data set [2] (250 μg injection then 10 to 50 μg/hour infusion), the analgesia result was “marked analgesia, comparable to that of morphine”. Besides, in data set [2] (10 to 50 μg/hour infusion), the “tolerability of the infusions” value is on record as “tolerated without any occurring side-effects for a period of over two weeks”. In data set [3], the anesthetic effects entry is on record as “have anesthetic effects”. The signs of pain result in data set [4] (dog having a large decubitus) is reported as “showed no signs of pain”. In addition, in data set [4] (dogs), the “duration of analgesic activity” value was “maintained for several weeks”; the sedation and behavior result is “had not been put under sedation and showed a balanced behavior”; the side effects result is listed as “No side effects were apparent”. In data set [4] (dogs, all animals, heated plate of 60° C., analgesia test according to Cohen), the “period for which heated plate was tolerated” value turned out to be 5 s. For the same molecule, the analgesic effectiveness entry in data set [5] (peridural application of 125 μg) was “analgesically effective”. Besides, the analgesic effectiveness entry in data set [5] (peridural application of 250 μg) is recorded as “analgesically effective”. Further, the analgesic effect entry in data set [6] is “a short-term analgesic effect was found”. Also, the half-life in data set [7] was 2 to 4 min.
